Test results: ChEMBL document CHEMBL1150788, “In vitro susceptibility of Sporothrix schenckii to six antifungal agents determined using three different methods” (2007)
Converted amounts (≈) assume the structure as drawn.

Assays:
Assay type in all cases: functional
[1] = test system: Sporothrix schenckii; assay: Antifungal activity against Sporothrix schenckii P26187 isolate from cutaneous-lymphatic sporotrichosis patient after 72 hrs by Sensititre YeastOne method
[2] = test system: Sporothrix schenckii; assay: Antifungal activity against Sporothrix schenckii P14954 isolate from cutaneous-lymphatic sporotrichosis patient after 72 hrs by Sensititre YeastOne method
[3] = test system: Sporothrix schenckii; assay: Antifungal activity against Sporothrix schenckii P14954 isolate from cutaneous-lymphatic sporotrichosis patient after 72 hrs by modified NCCLS M38-A method
[4] = test system: Sporothrix schenckii; assay: Antifungal activity against Sporothrix schenckii SSA29 isolate from cutaneous-lymphatic sporotrichosis patient after 72 hrs by Sensititre YeastOne method
[5] = test system: Sporothrix schenckii; assay: Antifungal activity against Sporothrix schenckii P30019 isolate from cutaneous-lymphatic sporotrichosis patient after 72 hrs by modified NCCLS M38-A method
[6] = test system: Sporothrix schenckii; assay: Antifungal activity against Sporothrix schenckii P0019 isolate from cutaneous-lymphatic sporotrichosis patient after 72 hrs by modified NCCLS M38-A method
[7] = test system: Sporothrix schenckii; assay: Antifungal activity against Sporothrix schenckii SSA29 isolate from cutaneous-lymphatic sporotrichosis patient after 72 hrs by modified NCCLS M38-A method
[8] = test system: Sporothrix schenckii; assay: Antifungal activity against Sporothrix schenckii P20825 isolate from cutaneous-lymphatic sporotrichosis patient after 72 hrs by modified NCCLS M38-A method
[9] = test system: Sporothrix schenckii; assay: Antifungal activity against Sporothrix schenckii PSCC1 isolate from cutaneous-lymphatic sporotrichosis patient after 72 hrs by modified NCCLS M38-A method
[10] = test system: Sporothrix schenckii; assay: Antifungal activity against Sporothrix schenckii PJRC002 isolate from cutaneous-lymphatic sporotrichosis patient after 72 hrs by Sensititre YeastOne method
[11] = test system: Candida parapsilosis; assay: Antifungal activity against Candida parapsilosis ATCC 22019 […] after 72 hrs by modified NCCLS M38-A method; details: Lodderomyces parapsilosis, ATCC 22019, 72 h
[12] = test system: Sporothrix schenckii; assay: Antifungal activity against Sporothrix schenckii P25013 isolate from cutaneous-lymphatic sporotrichosis patient after 72 hrs by Sensititre YeastOne method
[13] = test system: Sporothrix schenckii; assay: Antifungal activity against Sporothrix schenckii PSSA81 isolate from cutaneous-lymphatic sporotrichosis patient after 72 hrs by modified NCCLS M38-A method
[14] = test system: Sporothrix schenckii; assay: Antifungal activity against Sporothrix schenckii P24223 isolate from cutaneous-lymphatic sporotrichosis patient after 72 hrs by modified NCCLS M38-A method
[15] = test system: Sporothrix schenckii; assay: Antifungal activity against Sporothrix schenckii P3287 isolate from cutaneous-lymphatic sporotrichosis patient after 72 hrs by modified NCCLS M38-A method
[16] = test system: Sporothrix schenckii; assay: Antifungal activity against Sporothrix schenckii MRSS4 isolate from cutaneous-lymphatic sporotrichosis patient after 72 hrs by Sensititre YeastOne method
[17] = test system: Sporothrix schenckii; assay: Antifungal activity against Sporothrix schenckii P1621 isolate from cutaneous-lymphatic sporotrichosis patient after 72 hrs by Sensititre YeastOne method
[18] = test system: Sporothrix schenckii; assay: Antifungal activity against Sporothrix schenckii PGAC0016 isolate from cutaneous-lymphatic sporotrichosis patient after 72 hrs by modified NCCLS M38-A method
[19] = test system: Sporothrix schenckii; assay: Antifungal activity against Sporothrix schenckii P3287 isolate from cutaneous-lymphatic sporotrichosis patient after 72 hrs by Sensititre YeastOne method
[20] = test system: Sporothrix schenckii; assay: Antifungal activity against Sporothrix schenckii P10012 isolate from cutaneous-lymphatic sporotrichosis patient after 72 hrs by Sensititre YeastOne method
[21] = test system: Sporothrix schenckii; assay: Antifungal activity against Sporothrix schenckii PGAC0016 isolate from cutaneous-lymphatic sporotrichosis patient after 72 hrs by Sensititre YeastOne method
[22] = test system: Sporothrix schenckii; assay: Antifungal activity against Sporothrix schenckii isolate from cutaneous-lymphatic sporotrichosis patient after 72 hrs by modified NCCLS M38-A method
[23] = test system: Sporothrix schenckii; assay: Antifungal activity against Sporothrix schenckii P14036 isolate from cutaneous-lymphatic sporotrichosis patient after 72 hrs by Sensititre YeastOne method
[24] = test system: Sporothrix schenckii; assay: Antifungal activity against Sporothrix schenckii PSCC1 isolate from cutaneous-lymphatic sporotrichosis patient after 72 hrs by Sensititre YeastOne method
[25] = test system: Sporothrix schenckii; assay: Antifungal activity against Sporothrix schenckii P0019 isolate from cutaneous-lymphatic sporotrichosis patient after 72 hrs by Sensititre YeastOne method
[26] = test system: Aspergillus flavus; assay: Antifungal activity against Aspergillus flavus ATCC 204304 […] after 72 hrs by Sensititre YeastOne method; details: ATCC 204304, 72 h
[27] = test system: Sporothrix schenckii; assay: Antifungal activity against Sporothrix schenckii P24255 isolate from cutaneous-lymphatic sporotrichosis patient after 72 hrs by Sensititre YeastOne method
[28] = test system: Pichia kudriavzevii; assay: Antifungal activity against Candida krusei ATCC 6258 […] after 72 hrs by Sensititre YeastOne method; details: ATCC 6258, 72 h
[29] = test system: Sporothrix schenckii; assay: Antifungal activity against Sporothrix schenckii P26187 isolate from cutaneous-lymphatic sporotrichosis patient after 72 hrs by modified NCCLS M38-A method
[30] = test system: Sporothrix schenckii; assay: Antifungal activity against Sporothrix schenckii P24255 isolate from cutaneous-lymphatic sporotrichosis patient after 72 hrs by modified NCCLS M38-A method
[31] = test system: Sporothrix schenckii; assay: Antifungal activity against Sporothrix schenckii P30915 isolate from cutaneous-lymphatic sporotrichosis patient after 72 hrs by modified NCCLS M38-A method
[32] = test system: Sporothrix schenckii; assay: Antifungal activity against Sporothrix schenckii P10012 isolate from cutaneous-lymphatic sporotrichosis patient after 72 hrs by modified NCCLS M38-A method
[33] = test system: Sporothrix schenckii; assay: Antifungal activity against Sporothrix schenckii P24223 isolate from cutaneous-lymphatic sporotrichosis patient after 72 hrs by Sensititre YeastOne method
[34] = test system: Aspergillus flavus; assay: Antifungal activity against Aspergillus flavus ATCC 204304 […] after 72 hrs by modified NCCLS M38-A method; details: ATCC 204304, 72 h
[35] = test system: Pichia kudriavzevii; assay: Antifungal activity against Candida krusei ATCC 6258 […] after 72 hrs by modified NCCLS M38-A method; details: ATCC 6258, 72 h
[36] = test system: Sporothrix schenckii; assay: Antifungal activity against Sporothrix schenckii P1621 isolate from cutaneous-lymphatic sporotrichosis patient after 72 hrs by modified NCCLS M38-A method
[37] = test system: Sporothrix schenckii; assay: Antifungal activity against Sporothrix schenckii P25013 isolate from cutaneous-lymphatic sporotrichosis patient after 72 hrs by modified NCCLS M38-A method
[38] = test system: Sporothrix schenckii; assay: Antifungal activity against Sporothrix schenckii P30915 isolate from cutaneous-lymphatic sporotrichosis patient after 72 hrs by Sensititre YeastOne method
[39] = test system: Sporothrix schenckii; assay: Antifungal activity against Sporothrix schenckii isolate from cutaneous-lymphatic sporotrichosis patient after 72 hrs by Sensititre YeastOne method
[40] = test system: Sporothrix schenckii; assay: Antifungal activity against Sporothrix schenckii P14036 isolate from cutaneous-lymphatic sporotrichosis patient after 72 hrs by modified NCCLS M38-A method
[41] = test system: Sporothrix schenckii; assay: Antifungal activity against Sporothrix schenckii MRSS4 isolate from cutaneous-lymphatic sporotrichosis patient after 72 hrs by modified NCCLS M38-A method
[42] = test system: Candida parapsilosis; assay: Antifungal activity against Candida parapsilosis ATCC 22019 […] after 72 hrs by Sensititre YeastOne method; details: Lodderomyces parapsilosis, ATCC 22019, 72 h
[43] = test system: Sporothrix schenckii; assay: Antifungal activity against Sporothrix schenckii PJRC002 isolate from cutaneous-lymphatic sporotrichosis patient after 72 hrs by modified NCCLS M38-A method
[44] = test system: Sporothrix schenckii; assay: Antifungal activity against Sporothrix schenckii P20825 isolate from cutaneous-lymphatic sporotrichosis patient after 72 hrs by Sensititre YeastOne method
[45] = test system: Sporothrix schenckii; assay: Antifungal activity against Sporothrix schenckii P30019 isolate from cutaneous-lymphatic sporotrichosis patient after 72 hrs by Sensititre YeastOne method
[46] = test system: Sporothrix schenckii; assay: Antifungal activity against Sporothrix schenckii PSSA81 isolate from cutaneous-lymphatic sporotrichosis patient after 72 hrs by Sensititre YeastOne method

## C[C@@H](c1ncncc1F)[C@](O)(Cn1cncn1)c1ccc(F)cc1F [VORICONAZOLE]
[1]
  MIC: 4 µg/mL (≈ 11.5 µM)
[2]
  MIC: 8 µg/mL (≈ 22.9 µM)
[3]
  MIC: 16 µg/mL (≈ 45.8 µM)
[4]
  MIC: 4 µg/mL (≈ 11.5 µM)
[5]
  MIC: 4 µg/mL (≈ 11.5 µM)
[6]
  MIC: 16 µg/mL (≈ 45.8 µM)
[7]
  MIC: 8 µg/mL (≈ 22.9 µM)
[8]
  MIC: 8 µg/mL (≈ 22.9 µM)
[9]
  MIC: 4 µg/mL (≈ 11.5 µM)
[10]
  MIC: 2 µg/mL (≈ 5.73 µM)
[11]
  MIC: 0.03 µg/mL (≈ 0.0859 µM)
[12]
  MIC: 0.5 µg/mL (≈ 1.43 µM)
[13]
  MIC: 8 µg/mL (≈ 22.9 µM)
[14]
  MIC: 8 µg/mL (≈ 22.9 µM)
[15]
  MIC: 16 µg/mL (≈ 45.8 µM)
[16]
  MIC: 2 µg/mL (≈ 5.73 µM)
[17]
  MIC: 2 µg/mL (≈ 5.73 µM)
[18]
  MIC: 16 µg/mL (≈ 45.8 µM)
[19]
  MIC: 8 µg/mL (≈ 22.9 µM)
[20]
  MIC: 0.5 µg/mL (≈ 1.43 µM)
[21]
  MIC: 4 µg/mL (≈ 11.5 µM)
[22]
  MIC50: 8 µg/mL (≈ 22.9 µM)
  MIC90: 16 µg/mL (≈ 45.8 µM)
[23]
  MIC: 0.5 µg/mL (≈ 1.43 µM)
[24]
  MIC: 2 µg/mL (≈ 5.73 µM)
[25]
  MIC: 0.5 µg/mL (≈ 1.43 µM)
[26]
  MIC: 0.25 µg/mL (≈ 0.716 µM)
[27]
  MIC: 4 µg/mL (≈ 11.5 µM)
[28]
  MIC: 1 µg/mL (≈ 2.86 µM)
[29]
  MIC: 8 µg/mL (≈ 22.9 µM)
[30]
  MIC: 8 µg/mL (≈ 22.9 µM)
[31]
  MIC: 16 µg/mL (≈ 45.8 µM)
[32]
  MIC: 16 µg/mL (≈ 45.8 µM)
[33]
  MIC: 8 µg/mL (≈ 22.9 µM)
[34]
  MIC: 0.5 µg/mL (≈ 1.43 µM)
[35]
  MIC: 0.12 µg/mL (≈ 0.344 µM)
[36]
  MIC: 16 µg/mL (≈ 45.8 µM)
[37]
  MIC: 8 µg/mL (≈ 22.9 µM)
[38]
  MIC: 4 µg/mL (≈ 11.5 µM)
[39]
  MIC50: 2 µg/mL (≈ 5.73 µM)
  MIC90: 8 µg/mL (≈ 22.9 µM)
[40]
  MIC: 8 µg/mL (≈ 22.9 µM)
[41]
  MIC: 8 µg/mL (≈ 22.9 µM)
[42]
  MIC: 0.06 µg/mL (≈ 0.172 µM)
[43]
  MIC: 4 µg/mL (≈ 11.5 µM)
[44]
  MIC: 0.5 µg/mL (≈ 1.43 µM)
[45]
  MIC: 1 µg/mL (≈ 2.86 µM)
[46]
  MIC: 0.5 µg/mL (≈ 1.43 µM)
